Experimental data: PubChem BioAssay AID2060891 (Molecular Pharmacology Branch, DTP, NCI, 2025)

Test system: K98450-129-R-PDC complex spheroid growth, percent test/control
Assay: Anticancer human tumor K98450-129-R-PDC patient-derived colon adenocarcinoma cell line growth inhibition [RAS]
Details: for IC50: curve of first compound; for viability, T/C: stronger effect = lower value
Procedure, shortened: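 Multi-cell-type spheroids: tumor cells plus HUVEC endothelial cells and mesenchymal stem cells. RAS-pathway inhibitors were combined with targeted agents, each dosed in half-log steps down from clinical Cmax, or from 10 microM when Cmax was unknown.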

[1] = second compound 0.000949 µM, first compound 0.00316 µM
[2] = second compound 0.000949 µM, first compound 0.01 µM
[3] = second compound 0.000949 µM, first compound 0.0316 µM
[4] = second compound 0.000949 µM, first compound 0.1 µM
[5] = second compound 0.000949 µM, first compound 0.316 µM
[6] = second compound 0.000949 µM, first compound 1 µM
[7] = second compound 0.003 µM, first compound 0.00316 µM
[8] = second compound 0.003 µM, first compound 0.01 µM
[9] = second compound 0.003 µM, first compound 0.0316 µM
[10] = second compound 0.003 µM, first compound 0.1 µM
[11] = second compound 0.003 µM, first compound 0.316 µM
[12] = second compound 0.003 µM, first compound 1 µM
[13] = second compound 0.00949 µM, first compound 0.00316 µM
[14] = second compound 0.00949 µM, first compound 0.01 µM
[15] = second compound 0.00949 µM, first compound 0.0316 µM
[16] = second compound 0.00949 µM, first compound 0.1 µM
[17] = second compound 0.00949 µM, first compound 0.316 µM
[18] = second compound 0.00949 µM, first compound 1 µM
[19] = second compound 0.03 µM, first compound 0.00316 µM
[20] = second compound 0.03 µM, first compound 0.01 µM
[21] = second compound 0.03 µM, first compound 0.0316 µM
[22] = second compound 0.03 µM, first compound 0.1 µM
[23] = second compound 0.03 µM, first compound 0.316 µM
[24] = second compound 0.03 µM, first compound 1 µM
[25] = second compound 0.0949 µM, first compound 0.00316 µM
[26] = second compound 0.0949 µM, first compound 0.01 µM
[27] = second compound 0.0949 µM, first compound 0.0316 µM
[28] = second compound 0.0949 µM, first compound 0.1 µM
[29] = second compound 0.0949 µM, first compound 0.316 µM
[30] = second compound 0.0949 µM, first compound 1 µM
[31] = second compound 0.3 µM, first compound 0.00316 µM
[32] = second compound 0.3 µM, first compound 0.01 µM
[33] = second compound 0.3 µM, first compound 0.0316 µM
[34] = second compound 0.3 µM, first compound 0.1 µM
[35] = second compound 0.3 µM, first compound 0.316 µM
[36] = second compound 0.3 µM, first compound 1 µM
[37] = second compound 0.000949 µM, first compound 0.000949 µM
[38] = second compound 0.000949 µM, first compound 0.003 µM
[39] = second compound 0.000949 µM, first compound 0.00949 µM
[40] = second compound 0.000949 µM, first compound 0.03 µM
[41] = second compound 0.000949 µM, first compound 0.0949 µM
[42] = second compound 0.000949 µM, first compound 0.3 µM
[43] = second compound 0.003 µM, first compound 0.000949 µM
[44] = second compound 0.003 µM, first compound 0.003 µM
[45] = second compound 0.003 µM, first compound 0.00949 µM
[46] = second compound 0.003 µM, first compound 0.03 µM
[47] = second compound 0.003 µM, first compound 0.0949 µM
[48] = second compound 0.003 µM, first compound 0.3 µM
[49] = second compound 0.00949 µM, first compound 0.000949 µM
[50] = second compound 0.00949 µM, first compound 0.003 µM
[51] = second compound 0.00949 µM, first compound 0.00949 µM
[52] = second compound 0.00949 µM, first compound 0.03 µM
[53] = second compound 0.00949 µM, first compound 0.0949 µM
[54] = second compound 0.00949 µM, first compound 0.3 µM
[55] = second compound 0.03 µM, first compound 0.000949 µM
[56] = second compound 0.03 µM, first compound 0.003 µM
[57] = second compound 0.03 µM, first compound 0.00949 µM
[58] = second compound 0.03 µM, first compound 0.03 µM
[59] = second compound 0.03 µM, first compound 0.0949 µM
[60] = second compound 0.03 µM, first compound 0.3 µM
[61] = second compound 0.0949 µM, first compound 0.000949 µM
[62] = second compound 0.0949 µM, first compound 0.003 µM
[63] = second compound 0.0949 µM, first compound 0.00949 µM
[64] = second compound 0.0949 µM, first compound 0.03 µM
[65] = second compound 0.0949 µM, first compound 0.0949 µM
[66] = second compound 0.0949 µM, first compound 0.3 µM
[67] = second compound 0.3 µM, first compound 0.000949 µM
[68] = second compound 0.3 µM, first compound 0.003 µM
[69] = second compound 0.3 µM, first compound 0.00949 µM
[70] = second compound 0.3 µM, first compound 0.03 µM
[71] = second compound 0.3 µM, first compound 0.0949 µM
[72] = second compound 0.3 µM, first compound 0.3 µM
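Also: spheroids exposed to agents for seven days before the viability readout.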
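For viability, T/C in this document: luminescence used as a proxy for viable cell amount.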

Compound: C=CC(=O)N1CCN(c2nc(OCC3CCCN3C)nc3c(F)c(-c4nc(N)cc(C)c4C(F)(F)F)c(Cl)cc23)C(C)C1 (stereo not drawn) + CCn1c(-c2cc(N3CCN(C)CC3)cnc2C(C)OC)c2c3cc(ccc31)-c1csc(n1)CC(NC(=O)C1CC1C)C(=O)N1CCCC(N1)C(=O)OCC(C)(C)C2
- IC50 (second compound 0.000949 µM): 90.6 nM
- IC50 (second compound 0.003 µM): 52.7 nM
- IC50 (second compound 0.00949 µM): 30.4 nM
- IC50 (second compound 0.03 µM): < 3.16 nM
- IC50 (second compound 0.0949 µM): < 3.16 nM
- IC50 (second compound 0.3 µM): < 3.16 nM
- viability, T/C [1]: 88%
- viability, T/C [2]: 71.2%
- viability, T/C [3]: 69%
- viability, T/C [4]: 44.4%
- viability, T/C [5]: 40.1%
- viability, T/C [6]: 34.5%
- viability, T/C [7]: 88%
- viability, T/C [8]: 68.5%
- viability, T/C [9]: 55.6%
- viability, T/C [10]: 41.8%
- viability, T/C [11]: 42.1%
- viability, T/C [12]: 34.8%
- viability, T/C [13]: 72.7%
- viability, T/C [14]: 61.7%
- viability, T/C [15]: 49.8%
- viability, T/C [16]: 37.2%
- viability, T/C [17]: 29.1%
- viability, T/C [18]: 20%
- viability, T/C [19]: 44.8%
- viability, T/C [20]: 46.3%
- viability, T/C [21]: 37.3%
- viability, T/C [22]: 19.8%
- viability, T/C [23]: 20.9%
- viability, T/C [24]: 18.1%
- viability, T/C [25]: 16.1%
- viability, T/C [26]: 16.9%
- viability, T/C [27]: 14.4%
- viability, T/C [28]: 14.7%
- viability, T/C [29]: 14.3%
- viability, T/C [30]: 12%
- viability, T/C [31]: 10.9%
- viability, T/C [32]: 10.5%
- viability, T/C [33]: 11.6%
- viability, T/C [34]: 10.3%
- viability, T/C [35]: 11.7%
- viability, T/C [36]: 12.4%

Compound: CC1(C)CCC(Nc2ncc(C(F)(F)F)c(-c3c[nH]c4c(P(C)(C)=O)c(C#N)ccc34)n2)CN1 (stereo not drawn) + CCn1c(-c2cc(N3CCN(C)CC3)cnc2C(C)OC)c2c3cc(ccc31)-c1csc(n1)CC(NC(=O)C1CC1C)C(=O)N1CCCC(N1)C(=O)OCC(C)(C)C2
- IC50 (second compound 0.000949 µM): > 300 nM
- IC50 (second compound 0.003 µM): > 300 nM
- IC50 (second compound 0.00949 µM): > 300 nM
- IC50 (second compound 0.03 µM): > 300 nM
- IC50 (second compound 0.0949 µM): < 0.949 nM
- IC50 (second compound 0.3 µM): < 0.949 nM
- viability, T/C [37]: 100%
- viability, T/C [38]: 82.2%
- viability, T/C [39]: 96.2%
- viability, T/C [40]: 89.7%
- viability, T/C [41]: 80.8%
- viability, T/C [42]: 79.5%
- viability, T/C [43]: 81.2%
- viability, T/C [44]: 83.2%
- viability, T/C [45]: 85.6%
- viability, T/C [46]: 94.6%
- viability, T/C [47]: 77.2%
- viability, T/C [48]: 69.4%
- viability, T/C [49]: 75.2%
- viability, T/C [50]: 77.1%
- viability, T/C [51]: 76.7%
- viability, T/C [52]: 77.8%
- viability, T/C [53]: 81.7%
- viability, T/C [54]: 60.2%
- viability, T/C [55]: 54.1%
- viability, T/C [56]: 49.5%
- viability, T/C [57]: 51.2%
- viability, T/C [58]: 61.7%
- viability, T/C [59]: 63.1%
- viability, T/C [60]: 43.8%
- viability, T/C [61]: 24.6%
- viability, T/C [62]: 26.8%
- viability, T/C [63]: 30.6%
- viability, T/C [64]: 35.1%
- viability, T/C [65]: 40.3%
- viability, T/C [66]: 37%
- viability, T/C [67]: 12.7%
- viability, T/C [68]: 14.7%
- viability, T/C [69]: 17.9%
- viability, T/C [70]: 23.5%
- viability, T/C [71]: 28.4%
- viability, T/C [72]: 25.2%

Compound: CCc1c2c(nc3ccc(O)cc13)-c1cc3c(c(=O)n1C2)COC(=O)[C@]3(O)CC + CCn1c(-c2cc(N3CCN(C)CC3)cnc2C(C)OC)c2c3cc(ccc31)-c1csc(n1)CC(NC(=O)C1CC1C)C(=O)N1CCCC(N1)C(=O)OCC(C)(C)C2
- IC50 (second compound 0.000949 µM): 83.6 nM
- IC50 (second compound 0.003 µM): 57.1 nM
- IC50 (second compound 0.00949 µM): 18.5 nM
- IC50 (second compound 0.03 µM): 3.92 nM
- IC50 (second compound 0.0949 µM): < 0.949 nM
- IC50 (second compound 0.3 µM): < 0.949 nM
- viability, T/C [37]: 105%
- viability, T/C [38]: 89.6%
- viability, T/C [39]: 81.6%
- viability, T/C [40]: 52.6%
- viability, T/C [41]: 53.1%
- viability, T/C [42]: 44.3%
- viability, T/C [43]: 91.6%
- viability, T/C [44]: 75.3%
- viability, T/C [45]: 76%
- viability, T/C [46]: 54.7%
- viability, T/C [47]: 43.8%
- viability, T/C [48]: 36.4%
- viability, T/C [49]: 69.5%
- viability, T/C [50]: 56.6%
- viability, T/C [51]: 66.7%
- viability, T/C [52]: 39.6%
- viability, T/C [53]: 29.3%
- viability, T/C [54]: 22.5%
- viability, T/C [55]: 53.4%
- viability, T/C [56]: 52.8%
- viability, T/C [57]: 43.3%
- viability, T/C [58]: 24.7%
- viability, T/C [59]: 22.8%
- viability, T/C [60]: 13.9%
- viability, T/C [61]: 19.6%
- viability, T/C [62]: 24.4%
- viability, T/C [63]: 17.5%
- viability, T/C [64]: 12.3%
- viability, T/C [65]: 13.2%
- viability, T/C [66]: 9.33%
- viability, T/C [67]: 12.4%
- viability, T/C [68]: 15.5%
- viability, T/C [69]: 11.4%
- viability, T/C [70]: 10.8%
- viability, T/C [71]: 10.3%
- viability, T/C [72]: 6.55%

Compound: C=CC(=O)Nc1cc(Nc2nccc(-c3cn(C)c4ccccc34)n2)c(OC)cc1N(C)CCN(C)C + CCn1c(-c2cccnc2C(C)OC)c2c3cc(ccc31)N1CCOC(CC(NC(=O)C(C(C)C)N(C)C(=O)C3(F)CCN(C(=O)C#CC(C)(C)N(C)C)CC3)C(=O)N3CCCC(N3)C(=O)OCC(C)(C)C2)C1
- IC50 (second compound 0.000949 µM): 85 nM
- IC50 (second compound 0.003 µM): 21.5 nM
- IC50 (second compound 0.00949 µM): < 3.16 nM
- IC50 (second compound 0.03 µM): < 3.16 nM
- IC50 (second compound 0.0949 µM): < 3.16 nM
- IC50 (second compound 0.3 µM): < 3.16 nM
- viability, T/C [1]: 76.9%
- viability, T/C [2]: 63.9%
- viability, T/C [3]: 77.4%
- viability, T/C [4]: 44.5%
- viability, T/C [5]: 20.1%
- viability, T/C [6]: 8.96%
- viability, T/C [7]: 59.5%
- viability, T/C [8]: 51.5%
- viability, T/C [9]: 48.8%
- viability, T/C [10]: 24.4%
- viability, T/C [11]: 14.3%
- viability, T/C [12]: 10.2%
- viability, T/C [13]: 39.2%
- viability, T/C [14]: 41.6%
- viability, T/C [15]: 28.4%
- viability, T/C [16]: 20.9%
- viability, T/C [17]: 11.1%
- viability, T/C [18]: 8.95%
- viability, T/C [19]: 37%
- viability, T/C [20]: 30.9%
- viability, T/C [21]: 28.4%
- viability, T/C [22]: 18.1%
- viability, T/C [23]: 9.5%
- viability, T/C [24]: 9.54%
- viability, T/C [25]: 34%
- viability, T/C [26]: 32.4%
- viability, T/C [27]: 26.2%
- viability, T/C [28]: 16.2%
- viability, T/C [29]: 11%
- viability, T/C [30]: 9%
- viability, T/C [31]: 34%
- viability, T/C [32]: 28.9%
- viability, T/C [33]: 25.3%
- viability, T/C [34]: 16.5%
- viability, T/C [35]: 10.1%
- viability, T/C [36]: 9.52%
